Data from the OligoGym collection.
Bases are written 5' to 3'; sugars and linkages follow in the same order, as letters with counts (s phosphorothioate, o phosphodiester; PS: all linkages phosphorothioate). The collection does not say whether C is 5-methylated. l = locked nucleic acid (LNA); d = 2'-deoxy (DNA)

These sequences were tested against Tau (assay: rat primary cortical neurons, FLIPR, 25 uM ASO).

Compared with “TGCTTTTCCCAATTATT (sugars l3 d11 l3, PS)”, CACCTTGCTCAGGTCA (sugars l3 d10 l3, PS) is higher in calcium oscillation score: 69.5 % of control for the first, 134 % of control for the second.

First: CACCACAGTCTTTTAAT (sugars l4 d10 l3, PS)
Second: TCCCCACCCAAACTCCA (sugars l2 d13 l2, PS)
The calcium oscillation score of the first is lower: 73.7 % of control for the first, 80.8 % of control for the second.

First: CATCTACTTTCTGTCACC (sugars l2 d14 l2, PS)
Second: GCCTGATCACAAACCC (sugars l3 d10 l3, PS)
The calcium oscillation score of the first is lower: 63.4 % of control for the first, 144 % of control for the second.

First: ATGTTGCCTAATGAGC (sugars l3 d10 l3, PS)
Second: CCCATCTTAATTCATTTAAT (sugars l2 d14 l4, PS)
The calcium oscillation score of the first is lower: 69 % of control for the first, 90.1 % of control for the second.

Compared with TCCTTCTTCATTCTTG (sugars l3 d10 l3, PS), “CGTCCCAGCGTGATCTTCCA (sugars ldlllddddddddddlldll, PS)” is higher in calcium oscillation score: 23.8 % of control for the first, 38.3 % of control for the second.

Going from “CTTAAAATTTTTCTTATTTT (sugars l4 d12 l4, PS)” to CCATCACTTCGAACTC (sugars l3 d10 l3, PS), the calcium oscillation score rises from 62.8 % of control to ≥ 200 % of control.

Going from “TCTTTGAACACCCCATCT (sugars l2 d14 l2, PS)” to “ACTTTATCCCTCCATGAT (sugars l3 d11 l4, PS)”, the calcium oscillation score rises from 41 % of control to 47.4 % of control.

Compared with GGCATGATTGTGGGC (sugars l3 d9 l3, PS), “CCTCCCACCTATCAGTCA (sugars l1 d15 l2, PS)” is higher in calcium oscillation score: 5.22 % of control for the first, 46.2 % of control for the second.

First: AAATCAATTCTCATTTCAAC (sugars l4 d12 l4, PS)
Second: TTATTTATTCTTTTTATTA (sugars l4 d11 l4, PS)
The calcium oscillation score of the first is higher: 58.2 % of control for the first, 45.2 % of control for the second.

First: GCCAGGGACGTGGGTGATAT (sugars l3 d14 l3, PS)
Second: ATCAGAGGGTCTGAGC (sugars l3 d10 l3, PS)
The calcium oscillation score of the first is lower: 0 % of control for the first, 59.3 % of control for the second.

First: CCACCCAAACTCCAAGTT (sugars l2 d14 l2, PS)
Second: CTCGCGGAAGGTCAGCTTGT (sugars l3 d14 l3, PS)
The calcium oscillation score of the first is higher: 52 % of control for the first, 2.91 % of control for the second.

Compared with “AATTTACACCCAAACCTA (sugars l2 d12 l4, PS)”, “TCAGGTCAACTGGTTTGTAG (sugars l3 d14 l3, PS)” is lower in calcium oscillation score: 81.9 % of control for the first, 0 % of control for the second.

First: CATGATCTTAGGCTG (sugars l3 d9 l3, PS)
Second: TCCACCCTTACACATAG (sugars l3 d12 l2, PS)
The calcium oscillation score of the first is higher: 46 % of control for the first, 40.4 % of control for the second.

Compared with “CATGCAGTTTATTCCTGGCA (sugars l3 d14 l3, PS)”, “AAAATACTCCTCCCTTA (sugars l3 d10 l4, PS)” is higher in calcium oscillation score: 6.04 % of control for the first, 67.1 % of control for the second.

First: TAATCCTGTGCTTCA (sugars l3 d9 l3, PS)
Second: TCCCTTTCAAACCAGC (sugars l2 d10 l4, PS)
The calcium oscillation score of the first is lower: 86.7 % of control for the first, 92.3 % of control for the second.

Compared with “CTACTTTATTCCCTTAAC (sugars l4 d11 l3, PS)”, CATGATTGTGGGCTT (sugars l3 d9 l3, PS) is lower in calcium oscillation score: 91.3 % of control for the first, 0 % of control for the second.

Compared with “CCTCTTCCACTACAAGCT (sugars l2 d14 l2, PS)”, “TCCAGGGACCCAATCTTCGA (sugars l3 d14 l3, PS)” is lower in calcium oscillation score: 49.1 % of control for the first, 0 % of control for the second.

Going from “CCAGATTCCCCAACTCA (sugars l2 d12 l3, PS)” to “CCAGTGCCTGGCACAACAGG (sugars l3 d14 l3, PS)”, the calcium oscillation score falls from 76.7 % of control to 4.03 % of control.

Compared with “CAGATTTTACTTCCACCT (sugars l2 d14 l2, PS)”, “CCATTCAGATCTATCCA (sugars l3 d12 l2, PS)” is higher in calcium oscillation score: 44.7 % of control for the first, 94.3 % of control for the second.

Compared with AGCAGAGGAACGTGTG (sugars l3 d10 l3, PS), “CTCAAAATCCTTAATTTAAC (sugars l4 d12 l4, PS)” is higher in calcium oscillation score: 11.1 % of control for the first, 64.4 % of control for the second.

Going from “AGTGATTAACCAATTAACCG (sugars l3 d14 l3, PS)” to TCCTAATCCTGTGCTT (sugars l3 d10 l3, PS), the calcium oscillation score rises from 5.18 % of control to 23 % of control.

Going from “ACTCATCAACACCTTTTAAT (sugars l2 d14 l4, PS)” to “TTATTTCCAAATTCACTTTT (sugars lllldddddddddlddldll, PS)”, the calcium oscillation score rises from 63 % of control to 96.5 % of control.

First: CCCTAAAGTCCCAGG (sugars l3 d9 l3, PS)
Second: CTACCATGTCGATGCT (sugars l3 d10 l3, PS)
The calcium oscillation score of the first is lower: 72.4 % of control for the first, 99.7 % of control for the second.

Going from TGGACGTTGCTAAGAT (sugars l3 d10 l3, PS) to CCTCCACCCTTACACA (sugars l1 d13 l2, PS), the calcium oscillation score rises from 0 % of control to 58.9 % of control.

First: AACCCCTTCAACATCAGC (sugars l2 d12 l4, PS)
Second: CCCACCAAAGACTTCA (sugars l2 d11 l3, PS)
The calcium oscillation score of the first is higher: 64.9 % of control for the first, 58.3 % of control for the second.

Going from GGCGACTTGTACACGA (sugars l3 d10 l3, PS) to “CCAGTTACCATCATACA (sugars l2 d12 l3, PS)”, the calcium oscillation score rises from 69.4 % of control to 91.8 % of control.

Going from “GCTCAGCTAAGACCCTCAGG (sugars l3 d14 l3, PS)” to “TCCATTTTCACTGTTCA (sugars l3 d12 l2, PS)”, the calcium oscillation score rises from 29.4 % of control to 87.7 % of control.

Compared with “GATATTCATTCCCTCAC (sugars l2 d11 l4, PS)”, “AAACCAACTCAACATTACCC (sugars l3 d15 l2, PS)” is higher in calcium oscillation score: 57.2 % of control for the first, 94.3 % of control for the second.

Compared with “CTAATTACATTTTTTCTTT (sugars l4 d11 l4, PS)”, CCTTTGAAAGTCCTTT (sugars l2 d11 l3, PS) is higher in calcium oscillation score: 62.6 % of control for the first, 100 % of control for the second.

Compared with “TTAGACTCCTTCTTTAGGCT (sugars l3 d14 l3, PS)”, “TCCCCATTTATCCTTCA (sugars l2 d13 l2, PS)” is higher in calcium oscillation score: 26.2 % of control for the first, 65.9 % of control for the second.

Going from “AACACCTTTTAATTCATT (sugars l4 d10 l4, PS)” to AAGAGGCACAAGTCCT (sugars l3 d10 l3, PS), the calcium oscillation score rises from 74.8 % of control to 81.6 % of control.

Going from “GGATGTTGCCTAATGAGCCA (sugars l3 d14 l3, PS)” to “CTTTATTTCCAAATTCACT (sugars l4 d10 l5, PS)”, the calcium oscillation score rises from 0 % of control to 108 % of control.

First: CAGGCGCGAGCAGCGG (sugars l3 d10 l3, PS)
Second: TCTTAGAGGACTGCAACGCA (sugars l3 d14 l3, PS)
The calcium oscillation score of the first is higher: 49.5 % of control for the first, 25.7 % of control for the second.

Compared with TTTAGCAGAGGAACGT (sugars l3 d10 l3, PS), “CTTTATTTCCAAATTCAC (sugars l3 d11 l4, PS)” is higher in calcium oscillation score: 15.6 % of control for the first, 112 % of control for the second.

First: GAGAACTGGTTAGCCC (sugars l3 d10 l3, PS)
Second: TTAATTTCACCCTCAG (sugars l3 d10 l3, PS)
The calcium oscillation score of the first is lower: 2.3 % of control for the first, 41.7 % of control for the second.

First: GAAGGTGGCTCTGGGC (sugars l3 d10 l3, PS)
Second: TCCACAAACCAACTCAACA (sugars l2 d13 l4, PS)
The calcium oscillation score of the first is lower: 0 % of control for the first, 102 % of control for the second.

First: AGCGTGATCTTCCATC (sugars l3 d10 l3, PS)
Second: CAGGTATCCAGCCATATTTC (sugars l3 d14 l3, PS)
The calcium oscillation score of the first is higher: 101 % of control for the first, 27.5 % of control for the second.

Going from TAAAGTCCCAGGTCT (sugars l3 d9 l3, PS) to TTTGAGTTGAGGGACC (sugars l3 d10 l3, PS), the calcium oscillation score falls from 124 % of control to 0 % of control.

Compared with “ATTTCCAAATTCACTTTTAC (sugars l1 d17 l2, PS)”, CCGAATTTACACCCAA (sugars l2 d10 l4, PS) is lower in calcium oscillation score: ≥ 200 % of control for the first, 79.1 % of control for the second.
